Patent publication US20180228778A1, “COMPOSITIONS COMPRISING S1P RECEPTOR MODULATORS” (Akaal Pharma Pty Ltd, priority 2015, published 2018)

Experiments:
[1] = test system: mild to moderate psoriasis; assay: Phase I clinical study of topical use in healthy volunteers and psoriasis patients; format: in vivo, human; settings: daily for 28 days
Protocol: In a clinical study healthy volunteers and psoriasis patients with mild to moderate psoriasis were treated daily for 28 days.
The local psoriasis severity index (LPSI) was measured and recorded significant efficacy (>40%; p=0.0016; Figure-4). FIG. 4 illustrates the clinical effect of AKP.

[2] = test system: Phorbol ester mediated irritant contact dermatitis in Swiss albino mice; assay: Phorbol ester mediated irritant model of contact dermatitis; format: in vivo; settings: for reduction of ear swelling (inflammation): alone or in combination (Figure 3)
Protocol: The local application of Phorbol ester stimulates protein Kinase C (PKC), COX, LOX activity, formation of free radicals including the synthesis of mediators that regulate the production of TNF-α. The whole process mediates inflammation and hyperplasia as observed in inflammatory skin diseases such as psoriasis, eczema and others.
The topical efficacy of AKP (a compound of formula (I)) was determined in the Phorbol ester mediated irritant model of contact dermatitis. The 24 animals (Swiss albino mice) were divided in four groups (G1-4) of 6 each; G1 (control and vehicle treated), G2 (PMA challenged and vehicle treated), G3 (PMA challenged and clobetasol treated) and G4 (PMA challenged and AKP treated). The topical application of AKP (3% formulation; or as a DMSO solution) shown significant inhibition of ear inflammation (>40%; p<0.05). […] The combination reduced ear swelling (inflammation) by 43% (p[…]0.001) as shown in Figure-3 (Topical efficacy of AKP, betamethasone or combination in mice model of Phorbol ester mediated irritant contact dermatitis).

[3] = test system: LPS challenged macrophages (RAW cells); assay: Inhibition of pro-inflammatory cytokines and factors in LPS challenged macrophages (RAW cells); format: cell-based; settings: in-vitro, 1 to 5 μM
Protocol: The pro-inflammatory cytokines and factors are over expressed in inflammations, cancer and other indications. Lipopolysaccharide is well known to induce various pro-inflammatory factors in the monocytes (RAW cells) and the efficacy of compound on the LPS challenged cells was evaluated for the inhibition of tumor necrosis factor (TNFα), interleukins; IL1P, IL6, and factors such as inducible nitroxide synthase (iNOS), COX-2 and vascular endothelial growth factor (VEGF).

[4] = test system: DNFB-induced delayed type hypersensitivity (DTH) in BALB/c mice; assay: Dinitroflurobenzene (DNFB)-induced delayed type hypersensitivity (DTH) in BALB/c mice; format: in vivo; settings: oral, twice daily 3 mg/Kg
Source text: The formulation of representative compound of formula I have shown efficacy in a delayed-type hypersensitivity (DTH) reaction model. The DTH is an expression of cell-mediated immunity and plays a major role in the pathology and chronicity of many inflammatory disorders including inflammatory skin indications. One of the most characteristic DTH phenomena is contact hypersensitivity, which is characterized by swelling and increased tissue levels of cytokines. Contact hypersensitivity (CHS) is a T cell mediated immune reaction in response to cutaneous sensitization and challenge with reactive haptens those are capable of binding directly to soluble and cell associated proteins and recognized by T cells in the context of self-MHC products. The cells that recognize antigen-protein complex in the skin are the Langerhans cells (LCs). After topical application of an allergen, Langerhans cells (LCs), the major antigen-presenting cells (APCs) for the induction of immune responses in skin, show enhanced expression of surface MHC class II molecules, and start to emigrate from the skin to regional lymph nodes where specific lymphocyte activation is thought to occur. After a second contact with the haptens, T cells are first recruited into tissues and then activated by antigen-presenting cells to produce cytokines that mediate local inflammation. Myeloperoxidase (MPO) is an enzyme exclusively present in neutrophils granules, which is commonly used as an index of granulocyte infiltration.
The effect of AKP (a compound of formula (I)) as an oral treatment was evaluated in dinitroflurobenzene (DNFB)-induced delayed type hypersensitivity (DTH) in BALB/c mice. A total of 18 female BALB/c mice were randomly assigned to 2 groups, Group 1: DTH treated with the vehicle of AKP (N=9); Group 2: DTH treated with AKP-11 twice daily dose of 3 mg/Kg (N=9). […] Ear thickness was measured with a micrometer before challenge and 24 h after challenge. Ear weight was measured 24 h after challenge. […]

SMILES	AKP in blood (systemic exposure) [1]	serious adverse events [1]	local psoriasis severity index (LPSI) efficacy ([1]; p=0.0016, Figure 4) [%]	count of lymphocytes in the blood ([2]; topical application)	inhibition of ear inflammation ([2]; topical, 3% formulation or DMSO solution, PMA challenged, p<0.05) [%]	reduction of ear swelling (inflammation) ([2]; topical) [%]	inhibition of pro-inflammatory cytokines and factors (TNFα, IL1P, IL6, iNOS, COX-2, VEGF) [3]	ear thickness ([4]; 24 h after DNFB challenge)	ear weight ([4]; 24 h after DNFB challenge)	tissue MPO activity (right ear) ([4]; at sacrifice)
CCCOc1ccc(-c2nc(-c3ccc4oc(C(N)(CO)CO)cc4c3)no2)cc1Cl [AKP]	not evident in blood	no serious adverse event	> 40	did not alter	> 40	30	markedly inhibited	significantly reduced	significantly reduced	significantly reduced
C[C@H]1C[C@H]2[C@@H]3CCC4=CC(=O)C=C[C@]4(C)[C@@]3(F)[C@@H](O)C[C@]2(C)[C@@]1(O)C(=O)CO [betamethasone, reference compound]						30				
